US20090131302A1, “Transient receptor potential vanilloid 1 and uses thereof” (priority 2007, published 2009)

Experiments:
colon of P10 rats = settings: 0.5% into colon at P10, vs saline
Description: To treat neonatal rats with capsaicin, ten day old rat pups received an infusion of 0.2 mls of 50 mg/ml capsaicin or 0.2 mls vehicle: 10% ethanol, 10% Tween 20, 80% saline or were left unmanipulated. Visceral sensitivity and inflammatory parameters were measured in these rats between 8 and 12 weeks of age. […] After 4 weeks, rats were tested for sensitivity to colorectal distention.
Visceral hypersensitivity was measured by grading the response of rats to colorectal distention as previously described.^11 Briefly, under mild sedation with 1% Brevital (Eli Lily & Co Indianapolis, Ind.) 25 mg/kg i.p.), a flexible balloon (5 cm) constructed from a surgical glove finger attached to a tygon tubing was inserted 8 cm into the descending colon and rectum via the anus and held in place by taping the tubing to the tail. […] Pressure was measured using a sphygmomanometer connected to a pressure transducer. […] Behavioral responses to colorectal distention were measured by visual observation of the abdominal withdrawal reflex by blinded observer and the assignment of an AWR score as follows: 1=Normal behavior without response 2=Contraction of abdominal muscles; 3=Lifting of abdominal wall; 4=Body arching and lifting of pelvic structures. […]
Data is expressed as mean+/−standard error of the mean (SE).

MAPK = settings: pups one hour after infusion
Description: To determine whether acetic acid infusion of the colons of 10 days old pups activated MAPK in DRG containing soma of colon afferents, combined lumbar/sacral (LS) and thoracolumbar (TL) DRG from 4 pups/treatment group were assayed for p-p38 or ERK (p-p42/p-p44) content by western blot 1 hour after acetic acid infusion. Cervical (CE) DRG from the same animals were examined as an internal control for specificity of stimulation.

TRPV1 = test system: TRPV1
Description: Tissues for western blot or RNA extraction were immediately frozen on dry ice and were stored at −80 until further analysis. Tissues were homogenized in extract buffer; 1% NP40, 10% glycerol, 20 mM Tris HCl […], 100 mM NaCl, 50 mM NaF, 2 mM EDTA, 1 mM EGTA, 25 mM b-glycerophosphate, 2 mM sodium pyrophosphate, 1 mM sodium orthovanadate, 1 mM phenylmethylsulfonyl fluoride and Protease Inhibitor Cocktail, 1/100 (Sigma). Proteins were resolved on 7.5% SDS-PAGE gels, transferred to PVDF membranes (BioRad), and incubated with an anti-TRPV1 antibody (PC420, Invitrogen) at 1/500. Bound antibodies were detected by ECL kit (Amersham Pharmacia Biotech, Piscataway, N.J.). The membranes were exposed to X-ray films and subsequently stripped and re-probed with a b-III-tubulin antibody (1/1000, Promega). Films were converted to TIFF image files using a HP scanner, and the TRPV1 and b-III-tubulin bands were quantified using OptiQuant software (Packard). Data was expressed as the ratio of TRPV1 to b-III-tubulin band intensity.
RNA was extracted from frozen DRG using Triozol (Invitrogen). Starting with […] of RNA, two-step quantitative RT-PCR was performed using Applied Biosystems reagents and kits. The following forward and reverse primer and probe sequences were used: TRPV1: […] (SEQ ID NO: 2), […] (SEQ ID NO: 3); b-III-tubulin: […] (SEQ ID NO: 4), […] (SEQ ID NO: 5), […] (SEQ ID NO: 6). TAQMAN PCR was performed on an Applied Biosystems 5700. Relative changes in TRPV1 mRNA levels were calculated by the DDCt method using b-III-tubulin as a normalizer. No RT reactions were performed as controls.
The lipid soluble fluorescent dye, DiI (1,1′-dioleyl-3,3,3′,3-tetramethylindocarbocyanine methanesulfonate, Invitrogen), 25 mg in 0.5 ml methanol, was injected in 2 μl volumes at 8-10 sites on the exposed colon from the level of the bladder to 6 cm oral. After one to two weeks, rats were perfused transcardially with 150 ml phosphate buffered saline (PBS) followed by 400 ml ice cold 4% paraformaldehyde in PBS. Dorsal root ganglia, T12 to S2 were removed and were post-fixed one hour in PFA and cryoprotected overnight in 20% sucrose in PBS. 10 micron sections on plus slides were incubated sequentially with TRPV1 antibody (PC420, Invitrogen, 1/200) and then with anti-rabbit Alexa Fluor 488 (Invitrogen, 1/200). Sections were viewed using a BX60 Olympus microscope equipped with filter cubes appropriate for DiI (Rhodamine filter) and appropriate band pass and barrier filter for Alexa-488. Images were captured and were analyzed using Metaview software. To ensure that a neuron is counted only once, serial sections were placed on consecutive slides with at least 50 microns between sections on the same slide.
To determine whether TRPV1 expression was altered in adult rats that were sensitized with acetic acid as neonates, TRPV1 expression in DRG containing colon afferents and in the spinal cord was measured.
TRPV1 and BDNF mRNA expression was measured in S1 DRG isolated from adult rats that were treated with acetic acid or saline as neonates by quantitative RT-PCR. […] To increase the sensitivity and specificity of this gene expression assay, measurements will be made in colon afferent neurons identified by uptake of the retrograde label fluorogold and isolated by laser capture microdissection (LCM) (FIG. 11).

colon of adult rats = settings: 1 ml of 5% into descending colon at 8 weeks; tested after 4 weeks; 50-80 mm Hg; vs saline
Description: For neonatal sensitization, rats were obtained as litters of 4 days old pups. […] To treat neonatal rats with capsaicin, ten day old rat pups received an infusion of 0.2 mls of 50 mg/ml capsaicin or 0.2 mls vehicle: 10% ethanol, 10% Tween 20, 80% saline or were left unmanipulated. Visceral sensitivity and inflammatory parameters were measured in these rats between 8 and 12 weeks of age. […] After 4 weeks, rats were tested for sensitivity to colorectal distention.
The abdominal withdrawal reflex represents a characteristic set of behaviors produced by involuntary motor reflexes that are activated by colorectal distention. Visceral hypersensitivity was measured by grading the response of rats to colorectal distention as previously described.^11 Briefly, under mild sedation with 1% Brevital (Eli Lily & Co Indianapolis, Ind.) 25 mg/kg i.p.), a flexible balloon (5 cm) constructed from a surgical glove finger attached to a tygon tubing was inserted 8 cm into the descending colon and rectum via the anus and held in place by taping the tubing to the tail. Rats were placed in small Lucite cubicles (20×8×8 cm) (Bioengineering Department, UTMB) and were allowed to adapt for 30 minutes. CRD was performed by rapidly inflating the balloon to constant pressure. Pressure was measured using a sphygmomanometer connected to a pressure transducer. […]

colon = settings: rat, in vivo
Description: Colons were divided into proximal, middle and distal segments; portions of each segment were placed in 10% buffered formalin and portions were frozen in liquid nitrogen. Haematoxilin & Eosin stained parafin sections were scored for inflammation by a pathologist as described.^21 Myeloperoxidase (MPO) assays were performed as described.^22 Protein was measured by the BCA method (Pierce, Rockford, Ill.). Activity was expressed as the change in absorbance/min/mg protein. Cytokine levels were measured in colon extracts using the Biorad Bioplex assay procedure and normalized to protein.
To rule out the possibility that the sensitizing effects of neonatal acetic acid exposure were due to inflammation/injury of the colon, the colons of P10 pups were examined.
To determine whether persistent hypersensitivity achieved in neonatal acetic acid treated rats was due to the development of a chronic colitis in adult, H&E stained sections of the colons of 8 weeks old adult rats were examined for histopathological signs of inflammation, myoloperoxidase (MPO) activity and inflammatory cytokine levels. […] Since mast cells can affect both motility and sensitivity, mast cells in proximal, middle and distal colon were counted.

colon DRG neurons = test system: colon DRG neurons
Description: To determine whether the sensitivity of colon DRG neurons was altered in eight weeks old rats in this model, action potential threshold (rheobase) and firing frequency of acutely dissociated lumbar/sacral (LS), and thoracolumbar (TL) colon DRG neurons, identified by the presence of the retrograde label DiI, were measured in current clamp experiments.

[1] = adult rats sensitized as neonates vs controls
[2] = quantitative RT-PCR, vs P10 saline

IFN-g in proximal colon, relative to saline (colon): 1.5 fold | MPO activity in proximal, middle and distal colon (colon): no significant increases in activity | MPO values in colon of pups (colon): not significantly different | levels of pro-inflammatory cytokines (IL-1b, IL-1a, IL-2, IL-6, TNF-a, IFN-g) (colon): no significant differences
Structure (SMILES): CC(=O)O [acetic acid]
EMG activity in response to graded colorectal distention (colon of P10 rats; adult, 40 and 60 mm Hg): significantly higher | AWR scores in response to colorectal distention (colon of P10 rats; tested at 8 weeks): higher mean AWR scores at all distention pressures | p-p38 in TL or CE DRG (MAPK): No large changes | p-p42 in LS DRG (MAPK): no change | p-p44 in LS DRG (MAPK): seven-fold increase | p-ERK increase in TL DRG (MAPK; also seen with saline): 3-5 fold | p-p38 in LS DRG (MAPK; vs saline and unmanipulated): three-fold increase | TRPV1 protein expression in the spinal cord (TRPV1; adult rats sensitized as neonates): No change | TRPV1 mRNA in TL DRG (TRPV1; [1]): no change | TRPV1 mRNA increase in LS DRG (TRPV1; [1]): 1.9 fold | TRPV1 protein expression in whole DRG extracts (TRPV1; both TL and LS DRG, adult rats sensitized as neonates): significantly increased | colon DRG neurons (DiI) expressing TRPV1 immunoreactivity, LS DRG (TRPV1; control 38.8%): 54.0% | colon DRG neurons (DiI) expressing TRPV1 immunoreactivity, TL DRG (TRPV1; control 40.6%): 67.3% | BDNF mRNA expression increase in S1 DRG (TRPV1; [2]): 1.9 fold | TRPV1 mRNA expression increase in S1 DRG (TRPV1; [2]): 1.9 fold | AWR grades in response to colorectal distention (colon of adult rats): No significant differences | histology of colon of pups (colon): No histological signs of inflammation or tissue destruction | histopathological examination of adult colon (colon): no evidence of inflammation or abnormalities in structure | mast cell counts, distal colon (colon): 9.3 SE 4.1 number of mast cells per high-powered field | mast cell counts, middle colon (colon): 7.7 SE 1.2 number of mast cells per high-powered field | mast cell counts, proximal colon (colon): 6.3 SE 3.4 number of mast cells per high-powered field | average rheobase, TL colon DRG neurons (colon DRG neurons; 8 weeks old rats treated at P10, control 0.47): 0.29 nA | average rheobase, LS colon DRG neurons (colon DRG neurons; 8 weeks old rats treated at P10, control 0.56): 0.21 nA | number of action potentials elicited by current injection at 2x the rheobase, LS neurons (colon DRG neurons; control 1.2): 1.8
